Assay results from patent US10214546B2, “Btk inhibitors” (MERCK SHARP & DOHME CORP., priority 2014, dated 2019).
Like-named read-outs stand apart in the source and are kept apart here.

What was measured:
[1] = molecular target: BTK enzyme (recombinant full-length BTK, hBTK) (Homo sapiens (Human), UniProt Q06187); experiment: BTK enzymatic activity LANCE TR-FRET assay; type: biochemical; conditions: 50 pM hBTK, 25 μM ATP, 2 μM biotin-A5-peptide; compound range 1 μM to 0.017 nM; read-out: BTK binding IC50
Method: Btk Enzyme Activity Assay Methods
BTK enzymatic activity was determined with the LANCE (Lanthanide Chelate Excite) TR-FRET (Time-resolved fluorescence resonance energy transfer) assay. […] Phosphorylation reactions were allowed to proceed for 120 minutes. […] After 60 minutes incubation with detection reagents, reaction plates were read on a PerkinElmer EnVision plate reader using standard TR-FRET protocol. […] IC50 values were determined by 4 parameter robust fit of TR-FRET ratio values vs. (Log10) compound concentrations.

[2] = system: adenosine uptake into HeLa cells; experiment: [3H]Adenosine uptake assay in HeLa cells; type: cell-based; conditions: [3H]adenosine accumulation in HeLa cells, compound range 10 μM to 0.032 nM, read-out: ADU inhibition IC50
Method: Compounds are also screened in an adenosine uptake functional cellular assay using the protocol described below:
[^3H]Adenosine Uptake Assay Methods
Adenosine uptake activity was determined by monitoring the accumulation of tritiated adenosine into HeLa cells (ATCC catalog # CCL-2) using a PMT-based radiometric detection instrument. In this assay, the potency (IC50) of each compound was determined from a ten point (1:3 serial dilution; final compound concentration range in assay from 10 µM to […]) titration curve using the following outlined procedure. To each well of a 96-well CytoStar-T scintillating microplate (Perkin Elmer Catalog # RPNQ0163), 25 000 HeLa cells in 100 µL of growth medium comprising: Minimum Essential Media (Life Technologies Catalog #11095-080)+10% (v/v) foetal bovine serum (FBS; Sigma Aldrich Catalog # F2442) was added. These cells were incubated overnight at 37° C. in a humidified atmosphere with 5% (v/v) CO2. After this time the growth medium was removed and replaced with 40 μL assay medium comprising: Hanks balanced salts solution (HBSS; Thermo Fisher Catalog # SH30268.01)+5% (v/v) FBS. Compound stock solutions in DMSO were diluted in assay medium to 2.5× final compound concentration maintaining a constant DMSO concentration of 0.25% (v/v). 40 μL of compound in assay medium was dispensed into individual wells of the Cytostar-T plates and the plates were incubated for 30 minutes under ambient laboratory conditions. Following this incubation, 20 μL of 500 nM [^3H] adenosine (American Radiolabeled Chemicals Inc. […] The amount of radiolabel accumulation was then determined using a Perkin Elmer Topcount NXT microplate reader. In brief, HeLa cells adhere to the bottom of the Cytostar-T plate, uptake of [^3H]adenosine into these cells brings the radiolabel into sufficient proximity to excite the scintillant in the base of the plates. These events are captured by single PMT, time-resolved coincidence counting. IC50 values were determined by 4 parameter robust fit of counts per second values vs. (Log10) compound concentrations.

Chain of BTK enzyme (recombinant full-length BTK, hBTK) (Q06187 whole entry): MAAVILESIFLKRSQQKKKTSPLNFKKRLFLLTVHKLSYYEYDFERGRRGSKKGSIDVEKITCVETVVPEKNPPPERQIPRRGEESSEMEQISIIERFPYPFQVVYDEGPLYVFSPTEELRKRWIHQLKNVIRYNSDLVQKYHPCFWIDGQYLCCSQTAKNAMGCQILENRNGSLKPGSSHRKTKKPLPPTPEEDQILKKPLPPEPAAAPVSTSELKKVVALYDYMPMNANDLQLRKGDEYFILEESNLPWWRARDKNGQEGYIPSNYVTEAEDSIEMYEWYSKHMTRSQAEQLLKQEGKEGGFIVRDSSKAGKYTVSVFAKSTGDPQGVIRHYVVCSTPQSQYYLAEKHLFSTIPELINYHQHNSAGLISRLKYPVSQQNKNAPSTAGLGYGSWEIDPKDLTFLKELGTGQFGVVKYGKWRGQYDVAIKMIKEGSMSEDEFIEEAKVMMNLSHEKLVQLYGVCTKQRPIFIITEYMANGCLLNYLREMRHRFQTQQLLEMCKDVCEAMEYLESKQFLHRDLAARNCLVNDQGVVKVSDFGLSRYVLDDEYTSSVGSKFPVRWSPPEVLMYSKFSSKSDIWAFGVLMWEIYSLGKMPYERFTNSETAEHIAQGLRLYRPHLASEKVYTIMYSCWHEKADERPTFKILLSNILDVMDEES

SMILES	IC50 [1] [nM]	IC50 [2] [nM]	IC50 ([2]; Homo sapiens, HeLa) [nM]
COc1cc(C(O)(c2cccc(C(F)(F)F)c2)C(F)(F)F)ccc1-c1nc([C@@H]2CC[C@H]3CCC(=O)N3C2)n2ccnc(N)c12 (single isomer, unassigned) [Example 10]	496	2160	–
C[C@](O)(c1ccccc1)c1ccc(-c2nc([C@@H]3CC[C@H]4CCC(=O)N4C3)n3ccnc(N)c23)cc1 [Example 1, (6R,8aS)-6-(8-amino-1-(4-((S)-1-hydroxy-1-phenylethyl)phenyl)imidazo[1,5-a]pyrazin-3-yl)hexahydroindolizin-3(2H)-one]	65.2	–	3340
C[C@@](O)(c1ccc(-c2nc([C@@H]3CC[C@H]4CCC(=O)N4C3)n3ccnc(N)c23)cc1)c1cccc(C(F)(F)F)c1 [Example 3, (6R,8aS)-6-(8-amino-1-(4-((R)-1-hydroxy-1-(3-(trifluoromethyl)phenyl)ethyl)phenyl)imidazo[1,5-a]pyrazin-3-yl)hexahydroindolizin-3(2H)-one]	884	–	405
C[C@](O)(c1ccc(-c2nc([C@@H]3CC[C@H]4CCC(=O)N4C3)n3c(Cl)cnc(N)c23)cc1)c1cccc(C(F)(F)F)c1 [Example 5, (6R,8aS)-6-(8-amino-5-chloro-1-(4-((S)-1-hydroxy-1-(3-(trifluoromethyl)phenyl)ethyl)phenyl)imidazo[1,5-a]pyrazin-3-yl)hexahydroindolizin-3(2H)-one]	377	–	553
CC1OC(=O)N2C[C@H](c3nc(-c4ccc([C@@](C)(O)c5cccc(C(F)(F)F)c5)cc4)c4c(N)nccn34)OC[C@@H]12 (stereo partly drawn) [Example 8, (6R,8aS)-6-(8-amino-1-(4-((R)-1-hydroxy-1-(3-(trifluoromethyl)phenyl)ethyl)phenyl)imidazo[1,5-a]pyrazin-3-yl)-1-methyltetrahydrooxazolo[4,3-c][14]oxazin-3(1H)-one]	20.6	5080	–
C[C@@H]1OC(=O)N2C[C@H](c3nc(-c4ccc([C@@](C)(O)c5cccc(C(F)(F)F)c5)cc4)c4c(N)nccn34)OC[C@@H]12 [Example 9, (6R,8aS)-6-(8-amino-1-(4-((R)-1-hydroxy-1-(3-(trifluoromethyl)phenyl)ethyl)phenyl)imidazo[1,5-a]pyrazin-3-yl)-1-methyltetrahydrooxazolo[4,3-c][1,4]oxazin-3(1H)-one]	13	–	5540
CC(C)C(C)(O)c1ccc(-c2nc([C@@H]3CC[C@H]4CCC(=O)N4C3)n3ccnc(N)c23)cc1 (stereo partly drawn) [Example 14, (6R,8aS)-6-{8-amino-1-[4-(1-hydroxy-1,2-dimethylpropyl)phenyl]imidazo[1,5-a]pyrazin-3-yl}hexahydroindolizin-3(2H)-one]	256	–	6950
CC(O)(c1ccc(-c2nc([C@@H]3CC[C@H]4CCC(=O)N4C3)n3ccnc(N)c23)cc1)c1ccc(C(F)(F)F)cc1 (stereo partly drawn) [Example 15, (6R,8aS)-6-[8-amino-1-(4-{1-hydroxy-1-[4-(trifluoromethyl)phenyl]ethyl}phenyl)imidazo[1,5-a]pyrazin-3-yl]hexahydroindolizin-3(2H)-one]	388	–	1780
CC(O)(c1ccc(-c2nc([C@@H]3CC[C@H]4CCC(=O)N4C3)n3ccnc(N)c23)cc1)c1cccc(F)c1 (stereo partly drawn) [Example 16, (6R,8aS)-6-(8-amino-1-{4-[1-(3-fluorophenyl)-1-hydroxyethyl]phenyl}imidazo[1,5-a]pyrazin-3-yl)hexahydroindolizin-3(2H)-one]	7.3	–	2440
CC(O)(c1ccc(-c2nc([C@@H]3CC[C@H]4CCC(=O)N4C3)n3ccnc(N)c23)cc1)c1ccccn1 (stereo partly drawn) [Example 17, (6R,8aS)-6-{8-amino-1-[4-(1-hydroxy-1-pyridin-2-ylethyl)phenyl]imidazo[1,5-a]pyrazin-3-yl}hexahydroindolizin-3(2H)-one]	324	–	5720
CC(O)(c1ccc(-c2nc([C@@H]3CC[C@H]4CCC(=O)N4C3)n3ccnc(N)c23)cc1)c1cccnc1 (stereo partly drawn) [Example 18, (6R,8aS)-6-{8-amino-1-[4-(1-hydroxy-1-pyridin-3-ylethyl)phenyl]imidazo[1,5-a]pyrazin-3-yl}hexahydroindolizin-3(2H)-one]	359	–	10000
CC(O)(c1ccc(F)cc1)c1ccc(-c2nc([C@@H]3CC[C@H]4CCC(=O)N4C3)n3ccnc(N)c23)cc1 (stereo partly drawn) [Example 19, (6R,8aS)-6-(8-amino-1-{4-(1-(4-fluorophenyl)-1-hydroxyethyl]phenyl}imidazo[1,5-a]pyrazin-3-yl)hexahydroindolizin-3(2H)-one]	170	–	2360
Nc1nccn2c([C@@H]3CC[C@H]4CCC(=O)N4C3)nc(-c3ccc(C(O)(c4ccc(C(F)(F)F)cc4)C(F)(F)F)cc3)c12 (stereo partly drawn) [Example 28, (6R,8aS)-6-[8-amino-1-(4-{2,2,2-trifluoro-1-hydroxy-1-[4-(trifluoromethyl)phenyl]ethyl}phenyl)imidazo [1,5-a]pyrazin-3-yl]hexahydroindolizin-3(2H)-one]	792	–	–
Nc1nccn2c([C@@H]3CC[C@H]4CCC(=O)N4C3)nc(-c3ccc(C(O)(c4ccc(F)cc4)C(F)(F)F)cc3)c12 (stereo partly drawn) [Example 32, (6R,8aS)-6-(8-amino-1-{4-[2,2,2-trifluoro-1-(4-fluorophenyl)-1-hydroxyethyl]phenyl}imidazo[1,5-a]pyrazin-3-yl)hexahydroindolizin-3(2H)-one]	161	–	–

Compounds with a lower IC50 [1], results first:

IC50 [1] [nM]	IC50 [2] [nM]	IC50 ([2]; Homo sapiens, HeLa) [nM]	SMILES
3.5	–	–	CC(O)(c1ccccc1)c1ccc(-c2nc([C@@H]3CC[C@H]4CCC(=O)N4C3)n3ccnc(N)c23)cc1 (stereo partly drawn) [Example 23, (6R,8aS)-6-{8-amino-1-[4-(1-hydroxy-1-phenylethyl)phenyl]imidazol[1,5-a]pyrazin-3-yl}hexahydroindolizin-3(2H)-one]
3.4	–	1240	Nc1nccn2c([C@@H]3CC[C@H]4CCC(=O)N4C3)nc(-c3ccc(C(O)(c4ccccc4)C(F)(F)F)cc3)c12 (stereo partly drawn) [Example 12, (6R,8aS)-6-(8-amino-1-(4-(2,2,2-trifluoro-1-hydroxy-1-phenethyl)phenyl)imidazo[1,5-a]pyrazin-3-yl)hexahydroindolizin-3(2H)-one]
1.8	5340	–	COc1cc(C(O)(c2cccc(C(F)(F)F)c2)C(F)(F)F)ccc1-c1nc([C@@H]2CC[C@H]3CCC(=O)N3C2)n2ccnc(N)c12 (single isomer, unassigned) [Example 11]
1.7	–	873	CC(O)(c1ccc(-c2nc([C@@H]3CC[C@H]4CCC(=O)N4C3)n3ccnc(N)c23)cc1)c1cccc(C(F)(F)F)c1 (stereo partly drawn) [Example 13, (6R,8aS)-6-(8-amino-1-(4-(1-hydroxy-1-(3-(trifluoromethyl)phenyl)ethyl)phenyl)imidazo[1,5-a]pyrazin-3-yl)hexahydroindolizin-3(2H)-one]
1.6	–	6350	C[C@@](O)(c1ccccc1)c1ccc(-c2nc([C@@H]3CC[C@H]4CCC(=O)N4C3)n3ccnc(N)c23)cc1 [Example 2, (6R,8aS)-6-(8-amino-1-(4-((R)-1-hydroxy-1-phenylethyl)phenyl)imidazo[1,5-a]pyrazin-3-yl)hexahydroindolizin-3(2H)-one]
0.82	–	2790	CC1(C)C[C@@H]2CC[C@@H](c3nc(-c4ccc([C@@](C)(O)c5cccc(C(F)(F)F)c5)cc4)c4c(N)nccn34)CN2C1=O [Example 7, (6R,8aS)-6-(8-amino-1-(4-((R)-1-hydroxy-1-(3-(trifluoromethyl)phenyl)ethyl)phenyl)imidazo[1,5-a]pyrazin-3-yl)-2,2-dimethylhexahydroindolizin-3(2H)-one]
0.76	–	1730	C[C@@](O)(c1ccc(-c2nc([C@@H]3CC[C@H]4CCC(=O)N4C3)n3c(Cl)cnc(N)c23)cc1)c1cccc(C(F)(F)F)c1 [Example 6, (6R,8aS)-6-(8-amino-5-chloro-1-(4-((R)-1-hydroxy-1-(3-(trifluoromethyl)phenyl)ethyl)phenyl)imidazo[1,5-a]pyrazin-3-yl)hexahydroindolizin-3(2H)-one]
0.62	–	3480	C[C@](O)(c1ccc(-c2nc([C@@H]3CC[C@H]4CCC(=O)N4C3)n3ccnc(N)c23)cc1)c1cccc(C(F)(F)F)c1 [Example 4, (6R,8aS)-6-(8-amino-1-(4-((S)-1-hydroxy-1-(3-(trifluoromethyl)phenyl)ethyl)phenyl)imidazo[1,5-a]pyrazin-3-yl)hexahydroindolizin-3(2H)-one]
